{"source": "patent EP4483954A1", "about": "(Masarykova Univerzita, priority 2023, dated 2025)", "molecular_target": "T1, Haspin (h) (Homo sapiens, UniProt Q8TF76)", "T1 construct": "purchased Eurofins (KinaseProfiler)", "T1 sequence (Q8TF76 1-798)": "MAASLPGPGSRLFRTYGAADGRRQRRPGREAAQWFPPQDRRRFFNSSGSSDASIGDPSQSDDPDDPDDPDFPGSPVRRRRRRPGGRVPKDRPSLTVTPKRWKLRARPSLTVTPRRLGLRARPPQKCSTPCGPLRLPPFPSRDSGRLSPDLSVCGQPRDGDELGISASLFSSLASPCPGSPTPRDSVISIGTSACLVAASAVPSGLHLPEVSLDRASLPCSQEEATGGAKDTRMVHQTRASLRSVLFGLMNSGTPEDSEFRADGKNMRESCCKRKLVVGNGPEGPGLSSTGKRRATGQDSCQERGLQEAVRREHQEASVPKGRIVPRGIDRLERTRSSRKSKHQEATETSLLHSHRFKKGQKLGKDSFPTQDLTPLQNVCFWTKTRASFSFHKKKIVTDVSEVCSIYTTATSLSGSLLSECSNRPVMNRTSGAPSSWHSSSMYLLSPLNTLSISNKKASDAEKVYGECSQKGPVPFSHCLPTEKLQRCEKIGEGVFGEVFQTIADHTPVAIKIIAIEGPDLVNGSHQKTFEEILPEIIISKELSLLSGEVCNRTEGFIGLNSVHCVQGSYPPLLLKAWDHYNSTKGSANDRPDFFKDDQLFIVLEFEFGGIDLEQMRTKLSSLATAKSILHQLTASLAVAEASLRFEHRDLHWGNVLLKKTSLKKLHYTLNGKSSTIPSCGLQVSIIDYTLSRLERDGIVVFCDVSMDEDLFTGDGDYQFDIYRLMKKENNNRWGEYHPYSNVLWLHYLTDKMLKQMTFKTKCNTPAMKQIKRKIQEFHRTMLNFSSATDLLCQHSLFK", "assay": "radiometric kinase assay (KinaseProfiler, Eurofins), Haspin", "format": "biochemical", "settings": "in vitro radiometric kinase assay, tested at 1 nM to 10 000 nM, no pre-incubation; read-out: inhibitory activities (IC50 values) Haspin", "description": "The compounds were profiled in the radiometric assays (KinaseProfiler, Eurofins).\nBriefly, kinases were diluted in the buffer shown below prior to addition to the reaction mix: • CDKL3, TAF1L: 20 mM Tris/HCl pH 8.5, 0.2 mM EDTA, 0.1% β-mercaptoethanol, 0.01% Brij-35, 5% glycerol, 1 mg/ml BSA; • Haspin: 15 mM MOPS, 0.75 mM EDTA, 0.0075% Brij-35, 3.75% Glycerol, 150 mM NaCl, 0.1% β-mercaptoethanol, 1 mg/mLBSA; • CDKL4, CLK2, PIM1, TRB2: […], 1 mM EDTA, 0.01% Brij-35, 5% Glycerol, 0.1% β-mercaptoethanol, 1 mg/mL BSA.\nAll compounds were prepared to 50x final assay concentration in 100% DMSO. This working stock of the compound was added to the assay well as the first component in the reaction, followed by the remaining components as detailed in the general assay protocols below. There was no pre-incubation step between the compound and the kinase prior to initiation of the reaction.\nHaspin (h) was incubated with 8 mM MOPS pH 7.0, 0.2 mM EDTA, 500 µM RARTLSFAEPG (SEQ ID NO. 3), 10 mM magnesium acetate and γ-^33P-ATP (specific activity and concentration as required). The reaction was initiated by the addition of the Mg/ATP mix. After incubation for 40 minutes at room temperature, the reaction was stopped by the addition of phosphoric acid to a concentration of 0.5%. An aliquot of the reaction was then spotted onto a filter and washed four times for 4 minutes in 0.425% phosphoric acid and once in methanol prior to drying and scintillation counting.\nKinase activity data were expressed as the percent remaining kinase activity in tested samples compared to the vehicle (DMSO) reactions. The compounds were tested at the following concentrations: 1 nM, 3 nM, 10 nM, 30 nM, 100 nM, 300 nM, 1000 nM, 3000 nM, and 10 000 nM; IC50 values and curve fits were then obtained.", "data": [{"compound": "Cn1cc(-c2ccc3scc(-c4ccc5nncn5c4)c3n2)cn1", "note": "[Preparative Example 59, 3-([1,2,4]-triazolo[4,3-a]pyridin-6-yl)-5-(1-methyl-1H-pyrazol-4-yl)thieno[3,2-b]pyridine]", "values": [{"measurement": "IC50", "value": "100 to 499", "unit": "nM"}]}, {"compound": "Cn1cc(-c2ccc3scc(-c4ccnc5[nH]ccc45)c3n2)cn1", "note": "[Preparative Example 45, 5-(1-methyl-1H-pyrazol-4-yl)-3-(1H-pyrrolo[2,3-b]pyridin-4-yl)thieno[3,2-b]pyridine]", "values": [{"measurement": "IC50", "value": "100 to 499", "unit": "nM"}]}, {"compound": "c1ccc(-c2csc3ccc(-c4cn[nH]c4)nc23)cc1", "note": "[Preparative Example 121, 3-phenyl-5-(1H-pyrazol-4-yl)thieno[3,2-b]pyridine]", "values": [{"measurement": "IC50", "value": "100 to 499", "unit": "nM"}]}, {"compound": "Cn1cc(-c2ccc3scc(-c4ccc5nccn5c4)c3n2)cn1", "note": "[Preparative Example 57, 3-(imidazo[1,2-a]pyridin-6-yl)-5-(1-methyl-1H-pyrazol-4-yl)thieno[3,2-b]pyridine]", "values": [{"measurement": "IC50", "value": "20 to 99", "unit": "nM"}]}, {"compound": "c1ccc(-n2ccc(-c3ccc4scc(-c5ccncc5)c4n3)n2)cc1", "note": "[Preparative Example 88, 5-(1-phenyl-1H-pyrazol-3-yl)-3-(pyridin-4-yl)thieno[3,2-b]pyridine]", "values": [{"measurement": "IC50", "value": "500 to 3000", "unit": "nM"}]}, {"compound": "Cn1cc(-c2ccc3scc(-c4ccc5ncncc5c4)c3n2)cn1", "note": "[Preparative Example 47, 5-(1-methyl-1H-pyrazol-4-yl)-3-(quinazolin-6-yl)thieno[3,2-b]pyridine]", "values": [{"measurement": "IC50", "value": "100 to 499", "unit": "nM"}]}, {"compound": "Cc1cc(-c2ccn(C)n2)nc2c(-c3ccncc3)csc12", "note": "[Preparative Example 158, 7-methyl-5-(1-methyl-1H-pyrazol-3-yl)-3-(pyridin-4-yl)thieno[3,2-b]pyridine]", "values": [{"measurement": "IC50", "value": "100 to 499", "unit": "nM"}]}, {"compound": "c1ccc(Cn2ccc(-c3ccc4scc(-c5ccncc5)c4n3)n2)cc1", "note": "[Preparative Example 89, 5-(1-benzyl-1H-pyrazol-3-yl)-3-(pyridin-4-yl)thieno[3,2-b]pyridine]", "values": [{"measurement": "IC50", "value": "500 to 3000", "unit": "nM"}]}, {"compound": "CCOC(=O)c1cn(C)nc1Nc1ccc2scc(-c3ccncc3)c2n1", "note": "[Preparative Example 107, Ethyl 1-methyl-3-((3-(pyridin-4-yl)thieno[3,2-b]pyridin-5-yl)amino)-1H-pyrazole-4-carboxylate]", "values": [{"measurement": "IC50", "value": "3000 to 10000", "unit": "nM"}]}, {"compound": "COC(=O)c1cn(C)nc1Nc1ccc2scc(-c3ccnc(CN)c3)c2n1", "note": "[Preparative Example 128, Methyl 3-((3-(2-(aminomethyl)pyridin-4-yl)thieno[3,2-b]pyridin-5-yl)amino)-1-methyl-1H-pyrazole-4-carboxylate]", "values": [{"measurement": "IC50", "value": "3000 to 10000", "unit": "nM"}]}, {"compound": "Cn1cc(-c2ccc3scc(-c4ccc(C#N)cc4)c3n2)cn1", "note": "[Preparative Example 4, 4-(5-(1-methyl-1H-pyrazol-4-yl)thieno[3.2-b]pyridin-3-yl)benzonitrile]", "values": [{"measurement": "IC50", "value": "100 to 499", "unit": "nM"}]}, {"compound": "Cn1cc(Nc2ccc3scc(-c4ccncc4)c3n2)cn1", "note": "[Preparative Example 97, N-(1-methyl-1H-pyrazol-4-yl)-3-(pyridin-4-yl)thieno[3,2-b]pyridin-5-amine]", "values": [{"measurement": "IC50", "value": "100 to 499", "unit": "nM"}]}, {"compound": "CC(C)(C)n1ccc(-c2ccc3scc(-c4ccncc4)c3n2)n1", "note": "[Preparative Example 80, 5-(1-(tert-butyl)-1H-pyrazol-3-yl)-3-(pyridin-4-yl)thieno[3,2-b]pyridine]", "values": [{"measurement": "IC50", "value": "3000 to 10000", "unit": "nM"}]}, {"compound": "Cn1nc(Nc2ccc3scc(-c4ccncc4)c3n2)cc1N", "note": "[Preparative Example 104, 1-methyl-N3-(3-(pyridin-4-yl)thieno[3,2-b]pyridin-5-yl)-1H-pyrazole-3,5-diamine]", "values": [{"measurement": "IC50", "value": "500 to 3000", "unit": "nM"}]}, {"compound": "c1cc(-c2csc3ccc(Nc4ccncn4)nc23)ccn1", "note": "[Preparative Example 114, 3-(pyridin-4-yl)-N-(pyrimidin-4-yl)thieno[3,2-b]pyridin-5-amine]", "values": [{"measurement": "IC50", "value": "500 to 3000", "unit": "nM"}]}, {"compound": "c1cc(-c2csc3ccc(-c4ccns4)nc23)ccn1", "note": "[Preparative Example 92, 5-(isothiazol-5-yl)-3-(pyridin-4-yl)thieno[3,2-b]pyridine]", "values": [{"measurement": "IC50", "value": "500 to 3000", "unit": "nM"}]}, {"compound": "Cn1cc(-c2ccc3scc(-c4ccnc(NC(=O)OC(C)(C)C)c4)c3n2)cn1", "note": "[Preparative Example 24, tert-butyl (4-(5-(1-methyl-1H-pyrazol-4-yl)thieno[3,2-b]pyridin-3-yl)pyridin-2-yl)carbamate]", "values": [{"measurement": "IC50", "value": "100 to 499", "unit": "nM"}]}, {"compound": "Cn1cc(-c2ccc3scc(-c4cc5ncccn5n4)c3n2)cn1", "note": "[Preparative Example 61, 5-(1-methyl-1H-pyrazol-4-yl)-3-(pyrazolo[1,5-a]pyrimidin-2-yl)thieno[3,2-b]pyridine]", "values": [{"measurement": "IC50", "value": "100 to 499", "unit": "nM"}]}, {"compound": "CCn1ccc(-c2ccc3scc(-c4ccncc4)c3n2)n1", "note": "[Preparative Example 87, 5-(1-ethyl-1H-pyrazol-3-yl)-3-(pyridin-4-yl)thieno[3,2-b]pyridine]", "values": [{"measurement": "IC50", "value": "500 to 3000", "unit": "nM"}]}, {"compound": "CC(C)(C)OC(=O)n1cc(Nc2ccc3scc(-c4ccc5ncnn5c4)c3n2)cn1", "note": "[Preparative Example 133, tert-butyl 4-((3-([1,2,4]triazolo[1,5-a]pyridin-6-yl)thieno[3,2-b]pyridin-5-yl)amino)-1H-pyrazole-1-carboxylate]", "values": [{"measurement": "IC50", "value": "3000 to 10000", "unit": "nM"}]}, {"compound": "Cn1ccc(Sc2ccc3scc(-c4ccncc4)c3n2)n1", "values": [{"measurement": "IC50", "value": "500 to 3000", "unit": "nM"}]}, {"compound": "Cn1cc(-c2ccc3scc(-c4ccc5nccnc5c4)c3n2)cn1", "note": "[Preparative Example 49, 5-(1-methyl-1H-pyrazol-4-yl)-3-(quinoxalin-6-yl)thieno[3,2-b]pyridine]", "values": [{"measurement": "IC50", "value": "20 to 99", "unit": "nM"}]}, {"compound": "c1cnc(-c2ccc3scc(-c4ccncc4)c3n2)nc1", "note": "[Preparative Example 112, 3-(pyridin-4-yl)-5-(pyrimidin-2-yl)thieno[3,2-b]pyridine]", "values": [{"measurement": "IC50", "value": "3000 to 10000", "unit": "nM"}]}, {"compound": "Cn1cc(-c2ccc3scc(-c4cncnc4)c3n2)cn1", "note": "[Preparative Example 38, 5-(1-methyl-1H-pyrazol-4-yl)-3-(pyrimidin-5-yl)thieno[3,2-b]pyridine]", "values": [{"measurement": "IC50", "value": "100 to 499", "unit": "nM"}]}, {"compound": "Cn1cc(-c2ccc3scc(-c4ccc(N5CCOCC5)nc4)c3n2)cn1", "note": "[Preparative Example 42, 4-(5-(5-(1-methyl-1H-pyrazol-4-yl)thieno[3,2-b]-pyridin-3-yl)pyridin-2-yl)morpholine]", "values": [{"measurement": "IC50", "value": "500 to 3000", "unit": "nM"}]}, {"compound": "Cn1ccc(CNc2ccc3scc(-c4ccncc4)c3n2)n1", "note": "[Preparative Example 108, N-((1-methyl-1H-pyrazol-3-yl)methyl)-3-(pyridin-4-yl)thieno[3,2-b]pyridin-5-amine]", "values": [{"measurement": "IC50", "value": "3000 to 10000", "unit": "nM"}]}, {"compound": "Cn1cc(-c2ccc3scc(-c4cnc5ccnn5c4)c3n2)cn1", "note": "[Preparative Example 55, 5-(1-methyl-1H-pyrazol-4-yl)-3-(pyrazolo[1,5-a]-pyrimidin-6-yl)thieno[3,2-b]pyridine]", "values": [{"measurement": "IC50", "value": "100 to 499", "unit": "nM"}]}, {"compound": "Cn1cc(-c2ccc3scc(-c4ccnc(O)c4)c3n2)cn1", "note": "[Preparative Example 18, 4-(5-(1-methyl-1H-pyrazol-4-yl)thieno[3,2-b]-pyridin-3-yl)pyridin-2-ol]", "values": [{"measurement": "IC50", "value": "100 to 499", "unit": "nM"}]}, {"compound": "Cc1cc(Nc2ccc3scc(-c4ccncc4)c3n2)nn1C", "note": "[Preparative Example 102, N-(1,5-dimethyl-1H-pyrazol-3-yl)-3-(pyridin-4-yl)thieno[3,2-b]pyridin-5-amine]", "values": [{"measurement": "IC50", "value": "100 to 499", "unit": "nM"}]}, {"compound": "Cn1ccc(Nc2ccc3scc(-c4ccc5nncn5c4)c3n2)n1", "note": "[Preparative Example 135, 3-([1,2,4]triazolo[4,3-a]pyridin-6-yl)-N-(1-methyl-1H-pyrazol-3-yl)thieno[3,2-b]pyridin-5-amine]", "values": [{"measurement": "IC50", "value": "500 to 3000", "unit": "nM"}]}, {"compound": "c1cc(-c2csc3ccc(OCC4CNCCO4)nc23)ccn1", "note": "(centres unmarked) [Preparative Example 118, 2-(((3-(pyridin-4-yl)thieno[3,2-b]pyridin-5-yl)oxy)methyl)-morpholine]", "values": [{"measurement": "IC50", "value": "100 to 499", "unit": "nM"}]}, {"compound": "Cn1ccc(-c2ccc3scc(-c4ccc5ncnn5c4)c3n2)n1", "note": "[Preparative Example 129, 3-([1,2,4]triazolo[1,5-a]pyridin-6-yl)-5-(1-methyl-1H-pyrazol-3-yl)thieno[3,2-b]pyridine]", "values": [{"measurement": "IC50", "value": "100 to 499", "unit": "nM"}]}]}
